Molecular target: T1, human PAH with the R408W mutation (Homo sapiens, UniProt P00439, R408W)
T1 construct: expressed in transfected cells
T1 sequence (P00439 1-452 R408W): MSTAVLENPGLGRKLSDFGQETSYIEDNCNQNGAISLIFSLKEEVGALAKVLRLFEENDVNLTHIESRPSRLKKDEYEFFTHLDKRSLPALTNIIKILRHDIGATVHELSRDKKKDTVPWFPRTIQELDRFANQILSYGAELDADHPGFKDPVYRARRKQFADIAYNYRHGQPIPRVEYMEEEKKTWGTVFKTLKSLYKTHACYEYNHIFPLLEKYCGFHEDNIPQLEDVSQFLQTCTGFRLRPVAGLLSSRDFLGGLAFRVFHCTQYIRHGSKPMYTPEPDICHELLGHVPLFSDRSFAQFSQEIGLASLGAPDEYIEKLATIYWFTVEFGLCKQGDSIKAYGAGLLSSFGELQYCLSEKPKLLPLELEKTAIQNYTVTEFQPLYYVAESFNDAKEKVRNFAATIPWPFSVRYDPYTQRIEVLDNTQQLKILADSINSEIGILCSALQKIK
Assay: Cell Based Phenylalanine Flux Assay
Conditions: A375 cells expressing human R408W PAH; 24 hrs compound incubation; 13C-Tyrosine by LC-MS; average where tested multiple times; read-out: AC50

| SMILES | AC50 |
| --- | --- |
| O=C(c1cnn2ccc(Br)cc12)N1CCc2[nH]cnc2[C@H]1c1nc2ccc(Br)cc2[nH]1 [Example 997, (S)-(4-(6-bromo-1H-benzo[d]imidazol-2-yl)-6,7-dihydro-1H-imidazo[4,5-c]pyridin-5(4H)-yl)(5-bromopyrazolo[1,5-a]pyridin-3-yl)methanone] | 1000 to 5000 nM |
| O=C(c1cnn2ccc(Br)cc12)N1CCc2[nH]cnc2[C@@H]1c1nc2ccc(Br)cc2[nH]1 [Example 998, (R)-(4-(6-bromo-1H-benzo[d]imidazol-2-yl)-6,7-dihydro-1H-imidazo[4,5-c]pyridin-5(4H)-yl)(5-bromopyrazolo[1,5-a]pyridin-3-yl)methanone] | > 5000 nM |
| O=C(c1nc2ccccc2o1)N1CCc2[nH]cnc2[C@H]1c1nc2ccccc2[nH]1 [Example 999, (S)-(4-(1H-benzo[d]imidazol-2-yl)-6,7-dihydro-1H-imidazo[4,5-c]pyridin-5(4H)-yl)(benzo[d]oxazol-2-yl)methanone] | 1000 to 5000 nM |
| O=C(CC1CC1)N1CCc2[nH]cnc2[C@@H]1c1nc2ccccc2[nH]1 [Example 1000, (R)-1-(4-(1H-benzo[d]imidazol-2-yl)-6,7-dihydro-1H-imidazo[4,5-c]pyridin-5(4H)-yl)-2-cyclopropylethanone] | 1000 to 5000 nM |
| O=C(c1nc2ccccc2s1)N1CCc2[nH]cnc2[C@H]1c1nc2ccccc2s1 [Example 1001, (S)-benzo[d]thiazol-2-yl(4-(benzo[d]thiazol-2-yl)-6,7-dihydro-1H-imidazo[4,5-c]pyridin-5(4H)-yl)methanone] | 500 to 1000 nM |
| O=C(c1nc2ccccc2s1)N1CCc2[nH]cnc2[C@@H]1c1nc2ccccc2s1 [Example 1002, (R)-benzo[d]thiazol-2-yl(4-(benzo[d]thiazol-2-yl)-6,7-dihydro-1H-imidazo[4,5-c]pyridin-5(4H)-yl)methanone] | 1000 to 5000 nM |
| O=C(c1cnn2ccccc12)N1CCc2[nH]cnc2[C@H]1c1nc2ccccc2s1 [Example 1009] | < 500 nM |
| O=C(c1cnn2ccccc12)N1CCc2[nH]cnc2[C@@H]1c1nc2ccccc2s1 [Example 1010, (R)-(4-(benzo[d]thiazol-2-yl)-6,7-dihydro-1H-imidazo[4,5-c]pyridin-5(4H)-yl)(pyrazolo[1,5-a]pyridin-3-yl)methanone] | 1000 to 5000 nM |
| COc1cccc(/C=C/C(=O)N2CCc3[nH]cnc3[C@H]2c2nc3ccccc3s2)c1 [Example 1011] | 500 to 1000 nM |
| COc1cccc(/C=C/C(=O)N2CCc3[nH]cnc3[C@@H]2c2nc3ccccc3s2)c1 [Example 1012, (R,E)-1-(4-(benzo[d]thiazol-2-yl)-6,7-dihydro-1H-imidazo[4,5-c]pyridin-5(4H)-yl)-3-(3-methoxyphenyl)prop-2-en-1-one] | > 5000 nM |
| COc1cccc(CCCC(=O)N2CCc3[nH]cnc3[C@H]2c2nc3ccccc3s2)c1 [Example 1013] | 500 to 1000 nM |
| COc1cccc(CCCC(=O)N2CCc3[nH]cnc3[C@@H]2c2nc3ccccc3s2)c1 [Example 1014, (R)-1-(4-(benzo[d]thiazol-2-yl)-6,7-dihydro-1H-imidazo[4,5-c]pyridin-5(4H)-yl)-4-(3-methoxyphenyl)butan-1-one] | > 5000 nM |
| O=C(c1ncn2ccccc12)N1CCc2[nH]cnc2[C@H]1c1nc2ccccc2s1 [Example 1027] | 500 to 1000 nM |
| O=C(c1ncn2ccccc12)N1CCc2[nH]cnc2[C@@H]1c1nc2ccccc2s1 [Example 1028, (R)-(4-(benzo[d]thiazol-2-yl)-6,7-dihydro-1H-imidazo[4,5-c]pyridin-5(4H)-yl)(imidazo[1,5-a]pyridin-1-yl)methanone] | > 5000 nM |

Other lines, results leading:

| AC50 | SMILES |
| --- | --- |
| 500 to 1000 nM | O=C(CCc1nccs1)N1CCc2[nH]cnc2[C@H]1c1nc2ccccc2s1 [Example 1003] |
| 1000 to 5000 nM | O=C(CCc1nccs1)N1CCc2nc[nH]c2[C@@H]1c1nc2ccccc2s1 [Example 1004, (R)-1-(4-(benzo[d]thiazol-2-yl)-6,7-dihydro-3H-imidazo[4,5-c]pyridin-5(4H)-yl)-3-(thiazol-2-yl)propan-1-one] |
| 500 to 1000 nM | O=C(CCc1ccc(F)cc1)N1CCc2[nH]cnc2[C@H]1c1nc2ccccc2s1 [Example 1005] |
| > 5000 nM | O=C(CCc1ccc(F)cc1)N1CCc2[nH]cnc2[C@@H]1c1nc2ccccc2s1 [Example 1006, (R)-1-(4-(benzo[d]thiazol-2-yl)-6,7-dihydro-1H-imidazo[4,5-c]pyridin-5(4H)-yl)-3-(4-fluorophenyl)propan-1-one] |
| < 500 nM | O=C(c1nccs1)N1CCc2[nH]cnc2[C@H]1c1nc2ccccc2s1 [Example 1007] |
| > 5000 nM | O=C(c1nccs1)N1CCc2[nH]cnc2[C@@H]1c1nc2ccccc2s1 [Example 1008, (R)-(4-(benzo[d]thiazol-2-yl)-6,7-dihydro-1H-imidazo[4,5-c]pyridin-5(4H)-yl)(thiazol-2-yl)methanone] |
| 500 to 1000 nM | O=C(CCC1CCCC1)N1CCc2[nH]cnc2[C@H]1c1nc2ccccc2s1 [Example 1015] |
| 1000 to 5000 nM | O=C(CCC1CCCC1)N1CCc2[nH]cnc2[C@@H]1c1nc2ccccc2s1 [Example 1016, (R)-1-(4-(benzo[d]thiazol-2-yl)-6,7-dihydro-1H-imidazo[4,5-c]pyridin-5(4H)-yl)-3-cyclopentylpropan-1-one] |
| 500 to 1000 nM | Cc1nnc(CCC(=O)N2CCc3[nH]cnc3[C@H]2c2nc3ccccc3s2)s1 [Example 1019] |
| > 5000 nM | Cc1nnc(CCC(=O)N2CCc3[nH]cnc3[C@@H]2c2nc3ccccc3s2)s1 [Example 1020, (R)-1-(4-(benzo[d]thiazol-2-yl)-6,7-dihydro-1H-imidazo[4,5-c]pyridin-5(4H)-yl)-3-(5-methyl-1,3,4-thiadiazol-2-yl)propan-1-one] |
| < 500 nM | O=C(CCC1CC1)N1CCc2[nH]cnc2[C@H]1c1nc2ccccc2s1 [Example 1021] |
| 1000 to 5000 nM | O=C(CCC1CC1)N1CCc2[nH]cnc2[C@@H]1c1nc2ccccc2s1 [Example 1022, (R)-1-(4-(benzo[d]thiazol-2-yl)-6,7-dihydro-1H-imidazo[4,5-c]pyridin-5(4H)-yl)-3-cyclopropylpropan-1-one] |
| 500 to 1000 nM | O=C(CCc1nc(Cl)cs1)N1CCc2[nH]cnc2[C@H]1c1nc2ccccc2s1 [Example 1023] |
| > 5000 nM | O=C(CCc1nc(Cl)cs1)N1CCc2[nH]cnc2[C@@H]1c1nc2ccccc2s1 [Example 1024, (R)-1-(4-(benzo[d]thiazol-2-yl)-6,7-dihydro-1H-imidazo[4,5-c]pyridin-5(4H)-yl)-3-(4-chlorothiazol-2-yl)propan-1-one] |
| 1000 to 5000 nM | O=C(CCc1ncc(Cl)s1)N1CCc2[nH]cnc2[C@H]1c1nc2ccccc2s1 [Example 1025] |
| 1000 to 5000 nM | O=C(CCc1ncc(Cl)s1)N1CCc2[nH]cnc2[C@@H]1c1nc2ccccc2s1 [Example 1026, (R)-1-(4-(benzo[d]thiazol-2-yl)-6,7-dihydro-1H-imidazo[4,5-c]pyridin-5(4H)-yl)-3-(5-chlorothiazol-2-yl)propan-1-one] |
| 500 to 1000 nM | O=C(CCc1nccs1)N1CCc2[nH]cnc2[C@H]1c1nc2ccc(F)cc2s1 [Example 1029, (S)-1-(4-(6-fluorobenzo[d]thiazol-2-yl)-6,7-dihydro-1H-imidazo[4,5-c]pyridin-5(4H)-yl)-3-(thiazol-2-yl)propan-1-one] |
| > 5000 nM | O=C(CCc1nccs1)N1CCc2[nH]cnc2[C@@H]1c1nc2ccc(F)cc2s1 [Example 1030, (R)-1-(4-(6-fluorobenzo[d]thiazol-2-yl)-6,7-dihydro-1H-imidazo[4,5-c]pyridin-5(4H)-yl)-3-(thiazol-2-yl)propan-1-one] |

— US20250171438A1 (Agios Pharmaceuticals, Inc., priority 2022, published 2025)
